# ChEMBL document CHEMBL5104093, “A comprehensive review on β-lapachone: Mechanisms, structural modifications, and therapeutic potentials” (Eur J Med Chem, 2021)
# How the values were obtained:
# Staphylococcus aureus = assay: Antibacterial activity against Staphylococcus aureus 2065 MA assessed as diameter of bacterial growth inhibition by Mueller-Hinton broth based assay; type: functional
# OVCAR-8 = assay: Cytotoxicity against human OVCAR-8 cells assessed as reduction in cell viability by MTT assay; type: functional, cell-based
# SF-295 [1] = assay: Cytotoxicity against human SF-295 cells assessed as reduction in cell viability by MTT assay; type: functional, cell-based
# HCT-116 = assay: Cytotoxicity against human HCT-116 cells assessed as reduction in cell viability by MTT assay; type: functional, cell-based
# Trypanosoma cruzi [2] = assay: Antitrypanosomal activity against bloodstream form of Trypanosoma cruzi Y trypomastigotes infected in albino mouse assessed as reduction in viable parasite in blood by Neubauer counting chamber method; type: functional, organism-based
# NCI-H292 = assay: Cytotoxicity against human NCI-H292 cells assessed as reduction in cell viability incubated for 72 hrs by MTT assay; type: functional, cell-based; settings: NCI-H292, 72 h
# HEp-2 = assay: Cytotoxicity against human HEp-2 cells assessed as reduction in cell viability incubated for 72 hrs by MTT assay; type: functional, cell-based; settings: HEp-2, 72 h
# MCF7 = assay: Cytotoxicity against human MCF7 cells assessed as reduction in cell viability incubated for 72 hrs by MTT assay; type: functional, cell-based; settings: MCF7, 72 h
# Trypanosoma cruzi [3] = assay: Antitrypanosomal activity against bloodstream form of Trypanosoma cruzi Y trypomastigotes infected in albino mouse assessed as reduction in viable parasite in blood incubated for 24 hrs by Neubauer counting chamber method; type: functional, organism-based
# HeLa = assay: Cytotoxicity against human HeLa cells assessed as reduction in cell viability incubated for 48 hrs by MTT assay; type: functional, cell-based
# HepG2 = assay: Cytotoxicity against human HepG2 cells assessed as reduction in cell viability incubated for 48 hrs by MTT assay; type: functional, cell-based; settings: HepG2, 48 h
# KB = assay: Cytotoxicity against human KB cells assessed as reduction in cell viability incubated for 48 hrs by MTT assay; type: functional, cell-based
# [4] = test system: Mycobacterium tuberculosis; assay: Antimycobacterial activity against Mycobacterium tuberculosis H37Rv ATCC 27294 assessed as bacterial growth inhibition incubated for 7 days by resazurin dye based microtiter assay; type: functional; settings: ATCC 27294, 168 h, time 7 day
# Trypanosoma cruzi [5] = assay: Antitrypanosomal activity against bloodstream form of Trypanosoma cruzi Y trypomastigotes infected in Swiss Webster mouse assessed as reduction in viable parasite in blood incubated for 24 hrs by Neubauer counting chamber based light microscopic analysis; type: functional, organism-based
# HL-60 = assay: Cytotoxicity against human HL-60 cells assessed as reduction in cell viability incubated for 72 hrs by MTT assay; type: functional, cell-based; settings: HL-60, 72 h
# SF-295 [6] = assay: Cytotoxicity against human SF-295 cells assessed as reduction in cell viability incubated for 72 hrs by MTT assay; type: functional, cell-based; settings: SF-295, 72 h
# MDA-MB-435 = assay: Cytotoxicity against human MDA-MB-435 cells assessed as reduction in cell viability incubated for 72 hrs by MTT assay; type: functional, cell-based; settings: MDA-MB-435, 72 h
# HCT-8 = assay: Cytotoxicity against human HCT-8 cells assessed as reduction in cell viability incubated for 72 hrs by MTT assay; type: functional, cell-based; settings: HCT-8, 72 h
# [7] = Cytotoxicity against monkey LLC-MK2 cells assessed as reduction in cell viability incubated for 96 hrs by trypan blue assay; type: toxicity, cell-based, Macaca mulatta; settings: rhesus monkey, read-out: LC50
# Trypanosoma cruzi [8] = assay: Antitrypanosomal activity against bloodstream form of Trypanosoma cruzi trypomastigotes infected in Swiss mouse assessed as reduction in viable parasite in blood incubated for 24 hrs by Neubauer counting chamber method; type: functional, organism-based
# Jurkat = assay: Cytotoxicity against human Jurkat cells assessed as reduction in cell viability incubated for 72 hrs by MTT assay; type: functional, cell-based
# MOLT-4 = assay: Cytotoxicity against human MOLT-4 cells assessed as reduction in cell viability incubated for 72 hrs by MTT assay; type: functional, cell-based; settings: MOLT-4, 72 h
# K562 = assay: Cytotoxicity against human K562 cells assessed as reduction in cell viability incubated for 72 hrs by MTT assay; type: functional, cell-based; settings: K562, 72 h
# PC-3 = assay: Cytotoxicity against human PC-3 cells assessed as reduction in cell viability incubated for 72 hrs by MTT assay; type: functional, cell-based; settings: PC-3, 72 h
# B16 = assay: Cytotoxicity against mouse B16 cells assessed as reduction in cell viability incubated for 72 hrs by MTT assay; type: functional, cell-based; settings: B16, 72 h
smiles,measurement,setting,value
CC1(C)OC2=C(C(=O)C(=O)c3ccccc32)C1S(=O)(=O)C1CCCCC1 (centres undefined),zone diameter,Staphylococcus aureus,8 mm
CC1(C)O[C@H]2O[C@H](COC3C4=C(OC3(C)C)c3ccccc3C(=O)C4=O)[C@@H](OCc3ccccc3)[C@H]2O1 (some centres undefined),IC50,OVCAR-8,0.16 µM
same,IC50,SF-295 [1],0.16 µM
same,IC50,HCT-116,0.16 µM
O=C1C(=O)c2ccccc2C2=C1CC(Cn1cc(COC3CCCCO3)nn1)O2 (centres undefined),IC50,Trypanosoma cruzi [2],52.9 µM
CC(=O)OCC1C2=C(OC1(C)C)c1ccccc1C(=O)C2=O (centres undefined),IC50,NCI-H292,0.6 µM
same,IC50,HEp-2,0.6 µM
CC1(C)OC2=C(CC1CO)C(=O)C(=O)c1ccccc12 (centres undefined),IC50,MCF7,5.51 µM
same,IC50,NCI-H292,5.51 µM
same,IC50,HEp-2,5.51 µM
CCOC(=O)C1=C2C3=C(OC(C)(C)CC3)c3ccccc3C2(O)CC1=O (centres undefined),IC50,Trypanosoma cruzi [3],56.1 µM
CC1(C)COC2=C(C1)C(=O)C(=O)c1ccccc12 [RHINACANTHONE],IC50,HeLa,6.9 µM
same,IC50,HepG2,6.9 µM
same,IC50,KB,6.9 µM
COc1ccccc1-c1nc2c([nH]1)c1c(c3ccccc32)OC(C)(C)CC1,MIC,[4],1.56 µg/mL
CC1(C)OC2=C(C(=O)C(=O)c3ccccc32)[C@H](n2cc(-c3ccccc3)nn2)[C@H]1Br,MIC,[4],< 6.25 µg/mL
COc1ccc(-c2cn([C@H]3C4=C(OC(C)(C)[C@@H]3Br)c3ccccc3C(=O)C4=O)nn2)cc1,MIC,[4],< 6.25 µg/mL
CC1(C)OC2=C(C(=O)C(=O)c3ccccc32)C1CO (centres undefined),IC50,NCI-H292,0.46 µM
same,IC50,HEp-2,0.46 µM
COc1ccc(-c2nc3c(o2)c2c(c4ccccc43)OC(C)(C)CC2)cc1,IC50,Trypanosoma cruzi [3],3500 µM
CC1(C)OC2=C(CC1[Se]c1ccccc1)C(=O)C(=O)c1ccccc12 (centres undefined),IC50,Trypanosoma cruzi [5],103 µM
CC1(C)OC2=C(C(=O)C(=O)c3ccccc32)[C@H](n2cc(-c3ccc(F)cc3)nn2)[C@H]1Br,MIC,[4],< 6.25 µg/mL
O=C1C(=O)c2c(O)cccc2C2=C1CCC(c1ccccc1)O2 (centres undefined),IC50,HL-60,0.11 µM
same,IC50,SF-295 [6],0.11 µM
same,IC50,MDA-MB-435,0.11 µM
same,IC50,HCT-8,0.11 µM
CCCCCCCCC1CC2=C(O1)c1ccccc1C(=O)C2=O (centres undefined),CC50 at 96 h,[7],2200 µM
same,IC50,Trypanosoma cruzi [2],86.7 µM
CC1(C)CCc2c(c3ccccc3c3nc(-c4ccccc4)[nH]c23)O1,IC50,Trypanosoma cruzi [8],37.5 µM
CCCCCCCCCCC1CC2=C(O1)c1ccccc1C(=O)C2=O (centres undefined),CC50 at 96 h,[7],1700 µM
C=CCC1Cc2c(c3ccccc3c3nc4ccccc4nc23)OC1(C)C (centres undefined),MIC,[4],0.78 µg/mL
CC1(C)OC2=C(C(=O)C(=O)c3ccccc32)[C@H](n2cc(-c3ccc(Br)cc3)nn2)[C@H]1Br,MIC,[4],< 6.25 µg/mL
CC1(C)OC2=C(C(=O)C(=O)c3ccccc32)C1n1cc(-c2ccc(F)cc2)nn1 (centres undefined),IC50,HL-60,1.33 µM
same,IC50,Jurkat,1.33 µM
same,IC50,MOLT-4,1.33 µM
same,IC50,K562,1.33 µM
CC1(C)OC2=C(C(=O)C(=O)c3ccccc32)C1N=[N+]=[N-] (centres undefined),IC50,HL-60,1.19 µM
same,IC50,PC-3,1.19 µM
same,IC50,SF-295 [6],1.19 µM
same,IC50,MDA-MB-435,1.19 µM
same,IC50,HCT-8,1.19 µM
same,IC50,B16,1.19 µM
CC1CCC2C(C1)c1c(c3ccccc3c3nc4ccccc4nc13)OC2(C)C (centres undefined),MIC,[4],< 6.25 µg/mL
CC1(C)Oc2c(c3nc4ccccc4nc3c3ccccc23)C=C1Br,MIC,[4],< 6.25 µg/mL
CC1(C)CCc2c(c3ccccc3c3nc(-c4cccc(C(F)(F)F)c4)[nH]c23)O1,MIC,[4],1.56 µg/mL
O=C1C(=O)c2c(O)cccc2C2=C1CCC(c1ccc(F)cc1)O2 (centres undefined),IC50,HL-60,0.21 µM
same,IC50,SF-295 [6],0.21 µM
same,IC50,MDA-MB-435,0.15 µM
same,IC50,HCT-8,0.21 µM
Cc1cccc(S(=O)(=O)C2C3=C(OC2(C)C)c2ccccc2C(=O)C3=O)c1 (centres undefined),zone diameter,Staphylococcus aureus,7 mm
Cc1ccc(-c2nc3c([nH]2)c2c(c4ccccc43)OC(C)(C)CC2)cc1,MIC,[4],3.12 µg/mL
CC1(C)OC2=C(C(=O)C(=O)c3ccccc32)C1n1cc(CO)nn1 (centres undefined),IC50,HL-60,3.38 µM
same,IC50,PC-3,3.38 µM
same,IC50,SF-295 [6],3.38 µM
same,IC50,MDA-MB-435,3.38 µM
same,IC50,HCT-8,3.38 µM
same,IC50,B16,3.38 µM
CC1(C)CCc2c(c3ccccc3c3nc(-c4cccc(Br)c4)[nH]c23)O1,MIC,[4],1.56 µg/mL
CC1(C)CCc2c(c3ccccc3c3nc(-c4ccc5c(c4)OCO5)oc23)O1,IC50,Trypanosoma cruzi [3],270 µM
